± gives the expanded uncertainty stated by the source.
Assays:
[1] = 101 kPa, Liquid; for viscosity: Concentric cylinders viscometry; for mass density: Vibrating tube method
[2] = refractive index (Na D-line) (dimensionless); conditions: 101.33 kPa, Liquid, Standard Abbe refractometry
[3] = refractive index (Na D-line) (dimensionless); xn = mol fraction of the nth substance listed; conditions: 101 kPa, Liquid, Standard Abbe refractometry, x1 = 1
[4] = xn = mol fraction of the nth substance listed; conditions: 101 kPa, Liquid, x1 = 1; for viscosity: Concentric cylinders viscometry; for mass density: Vibrating tube method

COCCOCCOCCOCCOC [2,5,8,11,14-pentaoxapentadecane]
Conditions | mass density, [1] [kg/m3] | refractive index, [2] | viscosity, [1] [mPa·s]
288.15 K | 1015.63 ± 0.1 | 1.4345 ± 0.00033 | 4.341 ± 0.04
293.15 K | 1011 ± 0.1 | 1.43238 ± 0.00033 | 3.834 ± 0.035
298.15 K | 1006.36 ± 0.1 | 1.43027 ± 0.00033 | 3.38 ± 0.031
303.15 K | 1001.73 ± 0.098 | 1.42815 ± 0.00033 | 3.004 ± 0.028
308.15 K | 997.104 ± 0.098 | 1.42603 ± 0.00033 | 2.691 ± 0.025
313.15 K | 992.481 ± 0.099 | 1.42394 ± 0.00033 | 2.426 ± 0.023
318.15 K | 987.859 ± 0.1 | 1.42183 ± 0.00033 | 2.199 ± 0.021
323.15 K | 983.234 ± 0.1 | 1.41973 ± 0.00033 | 2.006 ± 0.019
328.15 K | 978.613 ± 0.1 | 1.41765 ± 0.00033 | 1.838 ± 0.018
333.15 K | 973.989 ± 0.1 | 1.41553 ± 0.00033 | 1.691 ± 0.016

CCCCO [butan-1-ol]
Conditions | mass density, [1] [kg/m3] | refractive index, [2] | viscosity, [1] [mPa·s]
288.15 K | 813.407 ± 0.14 | 1.40131 ± 0.00033 | 3.356 ± 0.031
293.15 K | 809.621 ± 0.14 | 1.39932 ± 0.00033 | 2.965 ± 0.028
298.15 K | 805.804 ± 0.15 | 1.39729 ± 0.00033 | 2.593 ± 0.024
303.15 K | 801.964 ± 0.15 | 1.39529 ± 0.00033 | 2.277 ± 0.022
308.15 K | 798.091 ± 0.15 | 1.39317 ± 0.00033 | 2.008 ± 0.019
313.15 K | 794.181 ± 0.15 | 1.39104 ± 0.00033 | 1.78 ± 0.017
318.15 K | 790.229 ± 0.15 | 1.38893 ± 0.00033 | 1.583 ± 0.015
323.15 K | 786.228 ± 0.15 | 1.38683 ± 0.00033 | 1.412 ± 0.014
328.15 K | 782.172 ± 0.15 | 1.38474 ± 0.00033 | 1.264 ± 0.013
333.15 K | 778.056 ± 0.15 | 1.38237 ± 0.00033 | 1.132 ± 0.012

CCCCO [butan-1-ol] + COCCOCCOCCOCCOC
Conditions | mass density, [4] [kg/m3] | refractive index, [3] | viscosity, [4] [mPa·s]
288.15 K | 813.407 ± 0.14 | 1.40131 ± 0.00033 | 3.356 ± 0.031
293.15 K | 809.621 ± 0.14 | 1.39932 ± 0.00033 | 2.965 ± 0.028
298.15 K | 805.804 ± 0.15 | 1.39729 ± 0.00033 | 2.593 ± 0.024
303.15 K | 801.964 ± 0.15 | 1.39529 ± 0.00033 | 2.277 ± 0.022
308.15 K | 798.091 ± 0.15 | 1.39317 ± 0.00033 | 2.008 ± 0.019
313.15 K | 794.181 ± 0.15 | 1.39104 ± 0.00033 | 1.78 ± 0.017
318.15 K | 790.229 ± 0.15 | 1.38893 ± 0.00033 | 1.583 ± 0.015
323.15 K | 786.228 ± 0.15 | 1.38683 ± 0.00033 | 1.412 ± 0.014
328.15 K | 782.172 ± 0.15 | 1.38474 ± 0.00033 | 1.264 ± 0.013
333.15 K | 778.056 ± 0.15 | 1.38237 ± 0.00033 | 1.132 ± 0.012

Reference: the NIST ThermoML archive (doi:10.1007/s10765-013-1469-0)
